Activity calls are given as the source filed them. The calls are words filed in the database; no cut-off is given here.
Assays:
[1] = target: T1, Protein deacetylase HDAC6 (Mus musculus, UniProt Q9Z2V5); assay: Inhibition of mouse HDAC6 expressed in human HEK-293T cells using fluorescent peptide Ac-KGLGK(Ac)-MCA as substrate preincubated for 10 mins followed by substrate addition and measured after 1 hr by fluorogenic assay; assay type: cell-based
T1 sequence (Q9Z2V5 whole entry): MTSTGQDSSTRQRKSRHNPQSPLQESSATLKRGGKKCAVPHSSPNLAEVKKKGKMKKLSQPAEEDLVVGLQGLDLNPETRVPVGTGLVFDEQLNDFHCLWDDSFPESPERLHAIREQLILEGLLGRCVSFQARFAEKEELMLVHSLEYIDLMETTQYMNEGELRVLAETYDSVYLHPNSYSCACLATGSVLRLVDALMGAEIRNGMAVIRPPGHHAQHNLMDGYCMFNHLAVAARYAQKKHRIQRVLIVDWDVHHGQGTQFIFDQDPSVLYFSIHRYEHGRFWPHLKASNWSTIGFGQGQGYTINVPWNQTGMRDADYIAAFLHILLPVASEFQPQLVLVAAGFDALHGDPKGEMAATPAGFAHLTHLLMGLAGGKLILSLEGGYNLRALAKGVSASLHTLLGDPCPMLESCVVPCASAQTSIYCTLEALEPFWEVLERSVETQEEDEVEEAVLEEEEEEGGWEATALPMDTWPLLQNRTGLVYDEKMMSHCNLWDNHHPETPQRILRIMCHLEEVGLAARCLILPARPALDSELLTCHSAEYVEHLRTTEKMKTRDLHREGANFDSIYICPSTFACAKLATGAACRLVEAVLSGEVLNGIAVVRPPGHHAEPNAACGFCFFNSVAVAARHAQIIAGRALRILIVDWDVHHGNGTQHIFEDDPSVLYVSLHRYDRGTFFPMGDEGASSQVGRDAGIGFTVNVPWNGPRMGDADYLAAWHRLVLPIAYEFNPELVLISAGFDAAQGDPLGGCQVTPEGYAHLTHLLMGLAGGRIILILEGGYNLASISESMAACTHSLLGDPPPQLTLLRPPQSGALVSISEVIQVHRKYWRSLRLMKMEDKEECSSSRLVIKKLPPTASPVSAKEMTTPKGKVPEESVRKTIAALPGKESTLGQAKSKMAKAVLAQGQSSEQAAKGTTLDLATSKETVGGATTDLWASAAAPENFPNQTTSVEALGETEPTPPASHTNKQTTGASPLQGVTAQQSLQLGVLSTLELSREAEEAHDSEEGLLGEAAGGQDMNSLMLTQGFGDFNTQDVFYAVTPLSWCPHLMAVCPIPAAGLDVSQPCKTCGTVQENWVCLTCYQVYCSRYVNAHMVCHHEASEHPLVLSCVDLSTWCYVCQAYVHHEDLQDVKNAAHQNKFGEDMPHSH

Histone deacetylase 4 = Histone deacetylase 4 (Homo sapiens, UniProt P56524); assay: Inhibition of human HDAC4 using fluorescent peptide Boc-Lys(trifluoroacetyl)-AMC as substrate preincubated for 10 mins followed by substrate addition and measured after 30 mins by fluorogenic assay
Chain of Histone deacetylase 4 (P56524 whole entry): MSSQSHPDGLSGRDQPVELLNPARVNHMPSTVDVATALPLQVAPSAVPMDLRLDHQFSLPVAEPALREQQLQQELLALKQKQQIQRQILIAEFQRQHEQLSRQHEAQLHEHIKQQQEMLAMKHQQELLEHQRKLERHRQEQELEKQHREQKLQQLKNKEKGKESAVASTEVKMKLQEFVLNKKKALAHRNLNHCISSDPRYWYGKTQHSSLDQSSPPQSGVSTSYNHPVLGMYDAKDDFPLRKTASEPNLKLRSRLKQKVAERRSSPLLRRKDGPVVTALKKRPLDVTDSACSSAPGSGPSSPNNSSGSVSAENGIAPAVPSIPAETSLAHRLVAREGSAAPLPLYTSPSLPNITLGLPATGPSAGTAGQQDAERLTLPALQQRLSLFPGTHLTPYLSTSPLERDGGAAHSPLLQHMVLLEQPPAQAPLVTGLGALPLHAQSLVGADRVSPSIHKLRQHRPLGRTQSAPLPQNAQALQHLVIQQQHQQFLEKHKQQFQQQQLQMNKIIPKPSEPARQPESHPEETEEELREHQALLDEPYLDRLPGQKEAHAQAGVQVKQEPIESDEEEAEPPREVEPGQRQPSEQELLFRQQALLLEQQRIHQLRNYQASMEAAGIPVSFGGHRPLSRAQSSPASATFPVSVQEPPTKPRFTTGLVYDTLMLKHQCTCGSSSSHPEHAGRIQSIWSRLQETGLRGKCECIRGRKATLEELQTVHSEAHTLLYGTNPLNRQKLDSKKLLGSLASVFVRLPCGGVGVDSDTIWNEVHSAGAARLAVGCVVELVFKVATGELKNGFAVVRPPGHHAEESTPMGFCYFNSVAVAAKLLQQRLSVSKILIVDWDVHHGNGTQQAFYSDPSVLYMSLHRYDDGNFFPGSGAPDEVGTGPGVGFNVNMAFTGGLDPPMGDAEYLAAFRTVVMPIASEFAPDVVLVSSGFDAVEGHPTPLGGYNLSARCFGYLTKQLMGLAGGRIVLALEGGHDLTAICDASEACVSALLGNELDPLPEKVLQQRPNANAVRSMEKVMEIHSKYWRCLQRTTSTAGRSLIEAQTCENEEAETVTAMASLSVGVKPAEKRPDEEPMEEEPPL

Homo sapiens [2] = species: Homo sapiens; assay: Selectivity ratio of IC50 for inhibition of human HDAC4 using fluorescent peptide Boc-Lys(trifluoroacetyl)-AMC as substrate to IC50 for inhibition of mouse HDAC6 expressed in human HEK-293T cells using fluorescent peptide Ac-KGLGK(Ac)-MCA as substrate
Homo sapiens [3] = species: Homo sapiens; assay: Selectivity ratio of IC50 for inhibition of human HDAC1 expressed in human HEK-293T cells using fluorescent peptide RHKKAc as substrate to IC50 for inhibition of mouse HDAC6 expressed in human HEK-293T cells using fluorescent peptide Ac-KGLGK(Ac)-MCA as substrate; assay type: cell-based
Histone deacetylase 1 = Histone deacetylase 1 (Homo sapiens, UniProt Q13547); assay: Inhibition of human HDAC1 expressed in human HEK-293T cells using fluorescent peptide RHKKAc as substrate preincubated for 10 mins followed by substrate addition and measured after 1 hr by fluorogenic assay
Chain of Histone deacetylase 1 (Q13547 whole entry): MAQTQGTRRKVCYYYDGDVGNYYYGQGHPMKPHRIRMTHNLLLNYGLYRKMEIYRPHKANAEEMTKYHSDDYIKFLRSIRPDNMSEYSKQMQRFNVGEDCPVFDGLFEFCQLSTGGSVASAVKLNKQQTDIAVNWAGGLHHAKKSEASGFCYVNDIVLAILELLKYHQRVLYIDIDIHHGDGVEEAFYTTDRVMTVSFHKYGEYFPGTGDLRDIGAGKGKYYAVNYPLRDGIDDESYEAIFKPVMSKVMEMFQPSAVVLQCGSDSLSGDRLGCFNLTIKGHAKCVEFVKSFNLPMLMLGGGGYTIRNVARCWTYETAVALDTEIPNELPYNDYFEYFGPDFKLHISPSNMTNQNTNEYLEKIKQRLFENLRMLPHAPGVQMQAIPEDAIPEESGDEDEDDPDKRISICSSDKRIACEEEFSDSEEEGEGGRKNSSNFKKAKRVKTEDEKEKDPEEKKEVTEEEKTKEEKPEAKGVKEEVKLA

Mus musculus [4] = assay: Antidepressant activity in restraint-stressed C57BL/6J mouse model assessed as reduction in immobility time at 20 mg/kg, ip measured at 14 mins relative to control (Rvb= 569.6 +/- 27.6 sec); assay type: functional
[5] = Apparent permeability in human Caco-2 cells incubated for 2 hrs by LC-MS/MS analysis; assay type: ADME, cell-based
[6] = Brain to plasma ratio in C57BL/6J mouse at 10 mg/kg, iv measured after 45 mins by LC-MS/MS analysis; assay type: ADME, organism-based; details: brain and plasma, read-out: BPR
Mus musculus [7] = assay: Antidepressant activity in restraint-stressed C57BL/6J mouse model assessed as reduction in immobility time at 10 mg/kg, ip measured at 14 mins relative to control (Rvb= 569.6 +/- 27.6 sec); assay type: functional
[8] = Metabolic stability in mouse liver microsomes assessed as parent compound remaining at 500 uM measured at 60 mins by LC-MS/MS analysis; assay type: ADME, Microsome; details: read-out: Stability
[9] = target: Voltage-gated inwardly rectifying potassium channel KCNH2 (Homo sapiens, UniProt Q12809); assay: Inhibition of human ERG potassium channel by fluorescence polarization assay; assay type: toxicity
Chain of Voltage-gated inwardly rectifying potassium channel KCNH2 (Q12809 whole entry): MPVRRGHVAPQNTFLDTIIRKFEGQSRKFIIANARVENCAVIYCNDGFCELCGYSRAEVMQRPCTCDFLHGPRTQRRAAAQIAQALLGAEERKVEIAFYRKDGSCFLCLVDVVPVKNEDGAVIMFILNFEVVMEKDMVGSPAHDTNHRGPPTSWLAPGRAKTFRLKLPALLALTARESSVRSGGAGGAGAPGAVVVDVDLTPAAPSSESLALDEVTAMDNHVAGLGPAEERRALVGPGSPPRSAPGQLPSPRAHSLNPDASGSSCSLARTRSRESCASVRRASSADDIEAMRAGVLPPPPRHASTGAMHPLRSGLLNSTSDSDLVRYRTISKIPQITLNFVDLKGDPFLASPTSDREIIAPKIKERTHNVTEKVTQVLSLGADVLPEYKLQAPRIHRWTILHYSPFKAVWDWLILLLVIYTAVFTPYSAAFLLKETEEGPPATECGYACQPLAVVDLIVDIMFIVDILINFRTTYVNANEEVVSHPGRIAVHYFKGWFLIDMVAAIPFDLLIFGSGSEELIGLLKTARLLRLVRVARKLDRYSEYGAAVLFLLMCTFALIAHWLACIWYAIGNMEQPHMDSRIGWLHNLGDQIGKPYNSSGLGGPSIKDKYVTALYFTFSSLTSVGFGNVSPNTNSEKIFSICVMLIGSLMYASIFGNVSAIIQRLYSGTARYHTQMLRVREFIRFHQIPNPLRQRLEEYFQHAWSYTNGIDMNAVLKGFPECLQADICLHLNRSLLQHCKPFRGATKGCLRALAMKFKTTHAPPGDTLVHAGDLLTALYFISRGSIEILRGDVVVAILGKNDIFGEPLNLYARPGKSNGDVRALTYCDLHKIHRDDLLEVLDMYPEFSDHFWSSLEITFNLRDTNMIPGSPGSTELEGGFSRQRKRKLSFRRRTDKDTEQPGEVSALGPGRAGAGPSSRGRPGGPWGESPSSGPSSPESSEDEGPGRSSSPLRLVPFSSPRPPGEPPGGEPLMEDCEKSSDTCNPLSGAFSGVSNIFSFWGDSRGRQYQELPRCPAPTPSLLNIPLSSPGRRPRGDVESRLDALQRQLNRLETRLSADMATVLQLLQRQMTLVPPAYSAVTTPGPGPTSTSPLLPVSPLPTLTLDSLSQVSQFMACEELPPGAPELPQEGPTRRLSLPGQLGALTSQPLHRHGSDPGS

Mus musculus [10] = assay: Antidepressant activity in restraint-stressed C57BL/6J mouse model assessed as increase in acetylated alpha tubulin level in brain at 10 mg/kg, ip measured after 15 mins; assay type: functional, organism-based
[11] = Lipophilicity, logD of compound at pH 7.4 measured after 20 mins by UPLC analysis; assay type: physicochemical; details: buffer
[12] = Metabolic stability in human liver microsomes assessed as parent compound remaining at 500 uM measured at 60 mins by LC-MS/MS analysis; assay type: ADME, Microsome; details: read-out: Stability

**Q.** Which results are given for O=C(NO)c1ccc(CCCCN2CCN(C(c3ccccc3)c3ccccc3)CC2)cc1?
**A.** IC50 [1]: 430 nM; IC50 (Histone deacetylase 4): 5 µM; Ratio IC50 (Homo sapiens [2]): 12; Ratio IC50 (Homo sapiens [3]): 13; IC50 (Histone deacetylase 1): 5.5 µM

**Q.** Which Time (Mus musculus [4]) does the source give for CNCCC(Oc1ccc(C(F)(F)F)cc1)c1ccccc1 (stereo not given) [FLUOXETINE] here?
**A.** 405.5 s

**Q.** What does the source list for O=C(NO)c1ccccc1CN1CCN(C(c2ccccc2)c2ccccc2)CC1?
**A.** IC50 [1]: > 100000 nM; IC50 (Histone deacetylase 4): > 100 µM; IC50 (Histone deacetylase 1): > 100 µM

**Q.** What does the source list for O=C(NO)c1ccc(CCCN2CCN(C(c3ccccc3)c3ccccc3)CC2)cc1?
**A.** IC50 [1]: 580 nM; IC50 (Histone deacetylase 4): 1.9 µM; Ratio IC50 (Homo sapiens [2]): 3; Ratio IC50 (Homo sapiens [3]): 7; IC50 (Histone deacetylase 1): 3.8 µM

**Q.** For O=C(NO)c1ccc(CCN2CCN(C(c3ccccc3)c3ccccc3)CC2)cc1, which IC50 [1] is on record?
**A.** 330 nM

**Q.** What about the IC50 (Histone deacetylase 4) of the same molecule?
**A.** 3 µM

**Q.** And the Ratio IC50 (Homo sapiens [2])?
**A.** 9

**Q.** What about the Ratio IC50 (Homo sapiens [3]) of the same molecule?
**A.** 15

**Q.** What about the IC50 (Histone deacetylase 1) of the same molecule?
**A.** 4.8 µM

**Q.** For CC(c1ccccc1)N1CCN(Cc2ccc(C(=O)NO)cc2)CC1 (stereo not given), which IC50 [1] is on record?
**A.** 260 nM

**Q.** And the Papp at 2 h [5]?
**A.** 10.9 ×10⁻⁶ cm/s

**Q.** And the IC50 (Histone deacetylase 4)?
**A.** 12.3 µM

**Q.** What about the Ratio IC50 (Homo sapiens [2]) of the same molecule?
**A.** 47

**Q.** And the Ratio IC50 (Homo sapiens [3])?
**A.** 26

**Q.** And the Kp at 0.75 h [6]?
**A.** 6.73

**Q.** And the Time (Mus musculus [7])?
**A.** 453 s

**Q.** And the remaining at 1 h, 500 µM [8]?
**A.** 67%

**Q.** And the IC50 [9]?
**A.** 106 µM

**Q.** What about the IC50 (Histone deacetylase 1) of the same molecule?
**A.** 6.7 µM

**Q.** And the Activity (Mus musculus [10])?
**A.** Active

**Q.** And the logD at 20 min [11]?
**A.** 2.1

**Q.** What about the remaining at 1 h [12] of the same molecule?
**A.** 63%

**Q.** With O=C(NO)c1ccc(CN2CCN(C(c3ccccc3)c3ccccc3)CC2)cc1 as the molecule, how does the IC50 [1] read?
**A.** 110 nM

**Q.** What about the Papp at 2 h [5] of the same molecule?
**A.** 17.1 ×10⁻⁶ cm/s

**Q.** What about the IC50 (Histone deacetylase 4) of the same molecule?
**A.** 4.4 µM

**Q.** And the Ratio IC50 (Homo sapiens [2])?
**A.** 40

**Q.** And the Ratio IC50 (Homo sapiens [3])?
**A.** 40

**Q.** And the Kp at 0.75 h [6]?
**A.** 7.91

**Q.** What about the Time (Mus musculus [7]) of the same molecule?
**A.** 410.7 s

**Q.** What about the remaining at 1 h, 500 µM [8] of the same molecule?
**A.** 1%

**Q.** What about the IC50 [9] of the same molecule?
**A.** 0.66 µM

**Q.** What about the IC50 (Histone deacetylase 1) of the same molecule?
**A.** 4.4 µM

**Q.** What about the logD at 20 min [11] of the same molecule?
**A.** 3.8

**Q.** What about the remaining at 1 h [12] of the same molecule?
**A.** 62%

**Q.** What does the source list for O=C(NO)c1ccc(CN2CCN(Cc3ccccc3)CC2)cc1?
**A.** IC50 [1]: 260 nM; Papp at 2 h [5]: 11.6 ×10⁻⁶ cm/s; IC50 (Histone deacetylase 4): 9.2 µM; Ratio IC50 (Homo sapiens [2]): 35; Ratio IC50 (Homo sapiens [3]): 40; Kp at 0.75 h [6]: 4.37; Time (Mus musculus [7]): 507.3 s; remaining at 1 h, 500 µM [8]: 80%; IC50 [9]: 73.1 µM; IC50 (Histone deacetylase 1): 10.4 µM; logD at 20 min [11]: 1.9; remaining at 1 h [12]: 73%

**Q.** Which results are given for O=C(NO)c1cccc(CN2CCN(C(c3ccccc3)c3ccccc3)CC2)c1?
**A.** IC50 [1]: 6600 nM; IC50 (Histone deacetylase 4): > 100 µM; Ratio IC50 (Homo sapiens [3]): 7; IC50 (Histone deacetylase 1): 46.6 µM

Reference: ChEMBL document CHEMBL5120930, “Discovery of Benzylpiperazine Derivatives as CNS-Penetrant and Selective Histone Deacetylase 6 Inhibitors” (ACS Med Chem Lett, 2022)
